As usually defined, the EC50 is the concentration at which the effect is half-maximal.

SMILES strings stand for the structures.

The target in one assay is T1, human 5-HT2C receptor (Homo sapiens, UniProt P28335).
T1 construct: expressed in transfected cells; host or cells: HEK293
T1 sequence (P28335 33-458): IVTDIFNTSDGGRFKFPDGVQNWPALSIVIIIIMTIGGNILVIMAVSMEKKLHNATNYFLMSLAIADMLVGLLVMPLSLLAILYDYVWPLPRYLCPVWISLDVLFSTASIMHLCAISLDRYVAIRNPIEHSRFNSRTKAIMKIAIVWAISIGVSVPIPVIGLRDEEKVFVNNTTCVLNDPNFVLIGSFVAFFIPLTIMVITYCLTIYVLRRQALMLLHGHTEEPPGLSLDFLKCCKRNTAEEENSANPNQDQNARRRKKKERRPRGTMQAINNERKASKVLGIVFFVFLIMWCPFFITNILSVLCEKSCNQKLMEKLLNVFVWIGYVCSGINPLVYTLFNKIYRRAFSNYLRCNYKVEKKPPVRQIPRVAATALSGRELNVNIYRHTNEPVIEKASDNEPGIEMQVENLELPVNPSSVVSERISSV
In words: Intracellular IP3 Accumulation Assay. It counts as cell-based. The following applies: HEK293 cells transfected with human 5-HT2C receptor; averages of at least two trials; read-out: 5-HT2C (EC50) IP Accumulation Assay. Here is the method: HEK293 cells were transfected in 15 cm sterile dishes with or without (control) 16 μg of human 5-HT2C receptor cDNA using 25 μl of lipofectamine. Cells were then incubated for 3-4 hours at 37° C./5% CO2 and then transfection media was removed and replaced with 100 μl of DMEM. Cells were then plated onto 100 cm sterile dishes. The next day cells were plated into 96 well PDL microtiter plates at a density of 55K/0.2 ml. Six hours latter, media was exchanged with [^3H]inositol (0.25 μCi/well) in inositol free DMEM and plates were incubated at 37° C./5% CO2 overnight. The next day, wells were aspirated and 200 μl of DMEM containing test compound, 10 μM pargyline, and 10 mM LiCl was added to appropriate wells. Plates were then incubated at 37° C./5% CO2 for three hours followed aspiration and by addition of fresh ice cold stop solution (1M KOH, 19 mM Na-borate, 3.8 mM EDTA) to each well. Plates were kept on ice for 5-10 min and the wells were neutralized by addition of 200 μl of fresh ice cold neutralization solution (7.5% HCl). Plates were then frozen until further processing is desired. The lysate was then transferred into 1.5 ml Eppendorf tubes and 1 ml of chloroform/methanol (1:2) was added/tube. The solution was vortexed for 15 seconds and the upper phase was applied to a Biorad AG1-X8™ anion exchange resin (100-200 mesh). First, the resin was washed with water at 1:1.25 W/V and 0.9 ml of upper phase was loaded onto the column. The column was then washed with 10 ml of 5 mM myo-inositol and 10 ml of 5 mM Na-borate/60 mM Na-formate. The inositol tris phosphates were eluted into scintillation vials containing 10 ml of scintillation cocktail with 2 ml of 0.1 M formic acid/1 M ammonium formate. The columns were regenerated by washing with 10 ml of 0.1 M formic acid/3M ammonium formate and rinsed twice with dd H2O and stored at 4° C. in water.
`COc1cc2c(cc1Br)C(C)CNCC2` (racemic) [Example 1, (R,S) 8-Bromo-7-methoxy-1-methyl-2,3,4,5-tetrahydro-1H-3-benzazepine]: the EC50 was found to be 4.2 nM.

As for `CCC1CNCCc2cc(OC)c(Br)cc21` (racemic) [Example 19, (R,S) 8-Bromo-1-ethyl-7-methoxy-2,3,4,5-tetrahydro-1H-3-benzazepine], the EC50 was determined as 18 nM.

As to `C=CCOc1cc2c(cc1I)C(C)CNCC2` (racemic) [Example 12, (R,S) 7-Allyloxy-8-iodo-1-methyl-2,3,4,5-tetrahydro-1H-3-benzazepine], the EC50 worked out at 6.3 nM.

Turning to `C=CCOc1cc2c(cc1Br)C(C)CNCC2` (racemic) [Example 5, (R,S) 7-Allyloxy-8-bromo-1-methyl-2,3,4,5-tetrahydro-1H-3-benzazepine], the EC50 came to 12.1 nM.

For the compound `CC1CNCCc2ccc(Br)cc21` (racemic) [Example 32, (R,S) 8-Bromo-1-methyl-2,3,4,5-tetrahydro-1H-3-benzazepine], the EC50 turned out to be 2.1 nM.

`COc1cc2c(cc1Cl)C(C)CNCC2` (racemic) [Example 2, (R,S) 8-Chloro-7-methoxy-1-methyl-2,3,4,5-tetrahydro-1H-3-benzazepine]: the EC50 is 4.5 nM.

With `COc1cc2c(cc1I)C(C)CNCC2` (racemic) [Example 3, (R,S) 8-Iodo-7-methoxy-1-methyl-2,3,4,5-taetrhydro-1H-3-benzazepine], the concentration giving a half-maximal response (EC50) is 1.4 nM.

For the compound `CC1CNCCc2cc(O)c(Br)cc21` (racemic) [Example 4, (R,S) 8-Bromo-7-hydroxy-1-methyl-2,3,4,5-tetrahydro-1H-3-benzazepine], the EC50 was determined as 2.1 nM.

In another assay the test system is Sprague-Dawley (SD) rats. Briefly: Food intake in rats: selective 5HT-2C agonist alone, phentermine alone, or combination (Example 59). Format: in vivo, rat. The following applies: female SD rats; perorally; 2 h food intake; FIG. 3A; two-way ANOVA, Bonferroni p<0.01. How it is done:
Female (weight 225-250 g) and male (weight 250-275 g) Sprague-Dawley (SD) rats were purchased from Harlan (San Diego, Calif.) and housed 4 per cage in a temperature controlled environment under a 17 h/7 h light/dark cycle (lights out at 10:00 am). Water and Chow was available (LabDiet 8604) ad libitum for two weeks. The animals were handled for 2 occasions during this time. On the morning of the study, the animals were individually housed with no food or bedding and dosed perorally with 1 ml/kg of compound or vehicle 30 minutes prior to lights out. At lights out, the animals were given a pre-weighed amount of chow and placed near the food bowl. Two hours later the remaining chow was weighed and the study concluded.
As for `C[C@H]1CNCCc2ccc(Cl)cc21` [Compound B, (R)-8-chloro-1-methyl-2,3,4,5-tetrahydro-1H-3-benzazepine], the “effect on food intake in female rats” value is on record as “No other significant differences between groups”.

In the case of `CC(C)(N)Cc1ccccc1` [phentermine, 1,1-Dimethyl-2-phenyl-ethylamine, reference compound], the “effect on food intake in female rats” value is listed as “No other significant differences between groups”.

Still in this assay, the particulars now being: male SD rats; perorally; 2 h food intake; FIG. 3B; two-way ANOVA, Bonferroni p<0.01.
For the compound `C[C@H]1CNCCc2ccc(Cl)cc21` [Compound B, (R)-8-chloro-1-methyl-2,3,4,5-tetrahydro-1H-3-benzazepine], the “effect on food intake in male rats” value is “No other significant differences between groups”.

In the case of `CC(C)(N)Cc1ccccc1` [phentermine, 1,1-Dimethyl-2-phenyl-ethylamine, reference compound], the “effect on food intake in male rats” value is “No other significant differences between groups”.

Values taken from patent US8546378B2, “5HT2C receptor modulator compositions and methods of use” (Arena Pharmaceuticals, Inc., priority 2004, dated 2013).
